Consider 14 molecules from article PMC9750858, “Rapid biosensor development using plant hormone receptors as reprogrammable scaffolds” (Nature Biotechnology, 2022).

The target of one experiment is T1, PYR1^WIN-M (Arabidopsis thaliana, UniProt O49686, A160I/D26G/E4G/F159A/H60P/K59Q/N90S/Y23H).
T1 construct: made in house
T1 sequence (O49686 with tags, fused parts or gaps E4G/Y23H/D26G/K59Q/H60P/N90S/F159A/A160I): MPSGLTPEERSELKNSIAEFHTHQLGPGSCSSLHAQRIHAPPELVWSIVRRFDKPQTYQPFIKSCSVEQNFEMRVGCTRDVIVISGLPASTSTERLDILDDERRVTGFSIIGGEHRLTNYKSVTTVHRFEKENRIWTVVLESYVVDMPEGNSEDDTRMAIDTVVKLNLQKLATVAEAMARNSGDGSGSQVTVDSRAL
The experiment in a line: ELISA-like plate assay, immobilized PYR1^WIN-M, biotinylated ΔN-HAB1^T+. Conditions: for ELISA signal generation, receptor cross-reactivity (source data): replicates; for LOD (lower limit of detection): fivefold dilution. The experiment is classed as binding. A general note: In an ELISA, binding on a coated surface is turned into a signal by an enzyme label.

A further experiment addresses T2, PYR1^PIRI (Arabidopsis thaliana, UniProt O49686, A160T/E130G/F159T/K59R/N119S/S122Q/S92M/V174A).
T2 construct: >PYR1-PIRI; expressed in transfected cells; host or cells: Saccharomyces cerevisiae BY4742
The experiment in a line: Split NanoLuc luciferase complementation in yeast, NLuc^N-PYR1^PIRI/NLuc^C-HAB1.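 For split luciferase luminescence (Fig. 4c source data): relative luminescence averaged over the signal plateau.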 The class given is cell-based. The note with it: replicates; for split luciferase luminescence (Fig. 4c source data): ligand pirimiphos-methyl.

In a further experiment the target is PYR1^DIAZI (Arabidopsis thaliana, UniProt O49686, A160V/E8G/F108Y/F159G/L87M/M158V/V81Y). The experiment in a line: Split NanoLuc luciferase complementation in yeast, NLuc^N-PYR1^DIAZI/NLuc^C-HAB1.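 For split luciferase luminescence (Fig. 4c source data): relative luminescence averaged over the signal plateau.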 Details: >PYR1-DIAZI; expressed in transfected cells; host or cells: Saccharomyces cerevisiae BY4742. The class given is cell-based. The note with it: for Sensor signal (Figure 4f top), replicate values: 3 replicates; for split luciferase luminescence (Fig. 4c source data): ligand diazinon, replicates.
Chain of PYR1^DIAZI (Q9CAJ0 179-511): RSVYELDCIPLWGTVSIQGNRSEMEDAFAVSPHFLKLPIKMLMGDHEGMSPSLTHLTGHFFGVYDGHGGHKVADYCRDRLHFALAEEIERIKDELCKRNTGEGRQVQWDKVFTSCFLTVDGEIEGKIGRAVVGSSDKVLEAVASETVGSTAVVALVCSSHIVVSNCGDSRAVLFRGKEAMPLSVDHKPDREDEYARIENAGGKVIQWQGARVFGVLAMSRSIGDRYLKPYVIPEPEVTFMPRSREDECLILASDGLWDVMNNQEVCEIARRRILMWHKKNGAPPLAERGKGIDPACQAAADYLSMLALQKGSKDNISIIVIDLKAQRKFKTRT
Chain of PYR1^DIAZI (O49686 other isoform, or with tags, fused parts or gaps E8G/V81Y/L87M/F108Y/M158V/F159G/A160V): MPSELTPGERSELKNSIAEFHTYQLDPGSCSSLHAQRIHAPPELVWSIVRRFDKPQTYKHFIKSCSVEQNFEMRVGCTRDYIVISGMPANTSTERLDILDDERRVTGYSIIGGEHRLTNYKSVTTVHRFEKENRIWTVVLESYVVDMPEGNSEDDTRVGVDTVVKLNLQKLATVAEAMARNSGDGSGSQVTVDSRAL

Values joined by “and” are separate entries in the source; they are usually repeats but may differ in a detail not shown here. Identical values can stand only once.

T2 sequence (O49686 other isoform, or with tags, fused parts or gaps K59R/S92M/N119S/S122Q/E130G/F159T/A160T/V174A): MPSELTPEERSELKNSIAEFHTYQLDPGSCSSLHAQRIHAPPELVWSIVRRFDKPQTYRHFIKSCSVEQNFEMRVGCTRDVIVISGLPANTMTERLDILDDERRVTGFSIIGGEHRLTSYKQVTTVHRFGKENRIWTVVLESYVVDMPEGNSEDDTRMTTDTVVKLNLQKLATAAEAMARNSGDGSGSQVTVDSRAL
T2 sequence (Q9CAJ0 179-511, further chain): as the sequence (Q9CAJ0 179-511) above

For `Cc1ccc(C(=O)c2cn(CCN3CCOCC3)c3ccccc23)c2ccccc12` [JWH-193], the “ELISA signal generation, receptor cross-reactivity (source data)” value (from here on “ELISA signal generation”) at PYR1^WIN-M (cannabinoid at 2 nM) was 0.065 and 0.104 and 0.068; at PYR1^WIN-M (cannabinoid at 2 μM), 0.07 and 0.084 and 0.11.

Turning to `CCCCCn1cc(C(=O)Cc2ccccc2)c2ccccc21` [JWH-167], the “ELISA signal generation” value was 0.146 and 0.078 and 0.09 at PYR1^WIN-M (cannabinoid at 2 nM); 0.075 and 0.092 and 0.077 at PYR1^WIN-M (cannabinoid at 2 μM).

Consider `CCOP(=S)(OCC)Oc1ccc2c(C)c(Cl)c(=O)oc2c1` [Coumaphos], for which the “Sensor signal (Figure 4f bottom), replicate values” was 11.6429 and 18.6581 and 9.869 on PYR1^PIRI ([Agonist] 1e-5 nM); 10.5853 and 39.7892 and 9.475 on PYR1^PIRI ([Agonist] 0.5 nM); 12.0486 and 19.9282 and 8.797 on PYR1^PIRI ([Agonist] 1 nM); 7.164 and 12.4287 and 9.583 at PYR1^PIRI ([Agonist] 10 nM); 8.8955 and 12.6369 and 17.1023 at PYR1^PIRI ([Agonist] 100 nM); 9.4868 and 11.2169 and 22.673 on PYR1^PIRI ([Agonist] 1000 nM). Also, the “Sensor signal (Figure 4f bottom), replicate values” at PYR1^PIRI ([Agonist] 10000 nM) was 12.3815 and 19.3959 and 83.5281; on PYR1^PIRI ([Agonist] 100000 nM), 9.584 and 13.286 and 71.6379. For the same molecule, the “Sensor signal (Figure 4f top), replicate values” at PYR1^DIAZI ([Agonist] 1e-5 nM) was 16.388 and 9.752 and 14.788; at PYR1^DIAZI ([Agonist] 0.5 nM) it was 30.8829 and 12.1724 and 17.852; on PYR1^DIAZI ([Agonist] 1 nM) it was 36.8131 and 33.8683 and 15.2635; on PYR1^DIAZI ([Agonist] 10 nM) it was 15.4966 and 64.9896 and 15.1391; on PYR1^DIAZI ([Agonist] 100 nM) it was 12.996 and 65.6413 and 15.942; on PYR1^DIAZI ([Agonist] 1000 nM), 21.5139 and 73.8437 and 25.5745. Besides, the “Sensor signal (Figure 4f top), replicate values” at PYR1^DIAZI ([Agonist] 10000 nM) was 81.7848 and 47.8146 and 79.9027; at PYR1^DIAZI ([Agonist] 100000 nM), 105.044 and 22.805 and 29.2791.

Regarding `CCCc1ccc(C(=O)c2cn(CCC)c3ccccc23)c2ccccc12` [JWH-180], the “ELISA signal generation” value was 0.104 and 0.071 and 0.083 on PYR1^WIN-M (cannabinoid at 2 nM); 0.08 and 0.088 and 0.087 on PYR1^WIN-M (cannabinoid at 2 μM).

Turning to `CCCCCn1cc(C(=O)c2cccc3ccccc23)cc1-c1ccccc1` [JWH-145], the “ELISA signal generation” value on PYR1^WIN-M (cannabinoid at 2 nM) was 0.469 and 0.077 and 0.091; on PYR1^WIN-M (cannabinoid at 2 μM) it was 0.105 and 0.116 and 0.1.

Take `C=C(C)[C@@H]1CCC(C)=C[C@H]1c1c(O)cc(CCCCC)cc1O` [Cannabidiol]: the “ELISA signal generation” value was 0.109 and 0.094 and 0.096 on PYR1^WIN-M (cannabinoid at 2 nM); 0.095 and 0.093 and 0.084 at PYR1^WIN-M (cannabinoid at 2 μM).

With `O=C(Nc1cccc2cccnc12)c1cn(CCCCCF)c2ccccc12` [AM2201, AM2201 8-quinolinyl carboxamide], the “ELISA signal generation” value on PYR1^WIN-M (cannabinoid at 2 nM) was 0.169 and 0.127 and 0.144; at PYR1^WIN-M (cannabinoid at 2 μM), 0.112 and 0.114 and 0.096.

Turning to `CCCCCn1cc(C(=O)N2CCN(C)CC2)c2ccccc21` [Mepirapim], the “ELISA signal generation” value was 0.117 and 0.158 and 0.176 at PYR1^WIN-M (cannabinoid at 2 nM); 0.111 and 0.116 and 0.103 at PYR1^WIN-M (cannabinoid at 2 μM).

For the molecule `CCCCCn1cc(-c2nc(CN(CC)CC)cs2)c2ccccc21` [PTI-1], the “ELISA signal generation” value at PYR1^WIN-M (cannabinoid at 2 nM) is 0.097 and 0.112 and 0.193; at PYR1^WIN-M (cannabinoid at 2 μM) it was 0.105 and 0.089 and 0.091.

`CCCCCc1cc(O)c2c(c1)OC(C)(C)[C@@H]1CCC(C)=C[C@@H]21` [Δ^9-THC, tetrahydrocannabinol]: the “ELISA signal generation” value on PYR1^WIN-M (cannabinoid at 2 nM) is 0.105 and 0.137 and 0.097; at PYR1^WIN-M (cannabinoid at 2 μM), 0.116 and 0.081 and 0.066.

Take `CCCCCn1cc(C(=O)c2cccc3ccccc23)cc1-c1ccccc1C` [JWH-370]: the “ELISA signal generation” value on PYR1^WIN-M (cannabinoid at 2 nM) was 0.069 and 0.076 and 0.063; at PYR1^WIN-M (cannabinoid at 2 μM), 0.06 and 0.059 and 0.063.

B1: PYR1^WIN-M: monomeric PYR1-WIN for ELISA: Y23H, D26G, K59Q, H60P, N90S, F159A, A160I (protein, UniProt O49686 1-191, looked up, variant Y23H D26G K59Q H60P N90S F159A A160I)
Abscisic acid receptor PYR1: MPSELTPEERSELKNSIAEFHTHQLGPGSCSSLHAQRIHAPPELVWSIVRRFDKPQTYQPFIKSCSVEQNFEMRVGCTRDVIVISGLPASTSTERLDILDDERRVTGFSIIGGEHRLTNYKSVTTVHRFEKENRIWTVVLESYVVDMPEGNSEDDTRMAIDTVVKLNLQKLATVAEAMARNSGDGSGSQVT
Regarding B1, the figures for the “LOD (lower limit of detection)” value with PYR1^WIN-M (spiked blood serum), in the experiment with PYR1^WIN-M (spiked saliva) and in the experiment with PYR1^WIN-M (spiked urine) were 1,105 pM, 305 pM and 515 pM, respectively.

B2: PYR1-pirimi: pirimiphos-responsive octuple PYR1 mutant (K59R, S92M, N119S, S122Q, E130G, F159T, A160T, V174A) (protein, UniProt O49686 1-191, looked up, variant K59R S92M N119S S122Q E130G F159T A160T V174A)
Abscisic acid receptor PYR1: MPSELTPEERSELKNSIAEFHTYQLDPGSCSSLHAQRIHAPPELVWSIVRRFDKPQTYRHFIKSCSVEQNFEMRVGCTRDVIVISGLPANTMTERLDILDDERRVTGFSIIGGEHRLTSYKQVTTVHRFGKENRIWTVVLESYVVDMPEGNSEDDTRMTTDTVVKLNLQKLATAAEAMARNSGDGSGSQVT
As to B2, the “split luciferase luminescence (Fig. 4c source data)” value (“split luciferase luminescence” below) in the experiment with PYR1^PIRI ([Ligand] 0.01) was 2.798 and 2.193 and 2.504; with PYR1^PIRI ([Ligand] 0.1) it was 2.824 and 1.934 and 2.89; in the experiment with PYR1^PIRI ([Ligand] 1), 4.065 and 3.256 and 4.278; in the experiment with PYR1^PIRI ([Ligand] 10) it was 10.289 and 6.672 and 8.183; in the experiment with PYR1^PIRI ([Ligand] 100), 22.748 and 20.257 and 17.606; with PYR1^PIRI ([Ligand] 1000), 23.566 and 22.462 and 20.41. Further, the “split luciferase luminescence” value with PYR1^PIRI ([Ligand] 10000) was 23.974 and 20.5 and 20.202.

B3: PYR1-diazi: diazinon-responsive heptuple PYR1 mutant (E8G, V81Y, L87M, F108Y, M158V, F159G, A160V) (protein)
chain: MPSELTPGERSELKNSIAEFHTYQLDPGSCSSLHAQRIHAPPELVWSIVRRFDKPQTYKHFIKSCSVEQNFEMRVGCTRDYIVISGMPANTSTERLDILDDERRVTGYSIIGGEHRLTNYKSVTTVHRFEKENRIWTVVLESYVVDMPEGNSEDDTRVGVDTVVKLNLQKLATVAEAMARNSGDGSGSQVT
modifications: left off: Gal4 DNA-binding domain (from the vector pBD), end not stated, kept
B3: the “split luciferase luminescence” value with PYR1^DIAZI ([Ligand] (uM) 0.01) was 2.821 and 4.017 and 3.928; with PYR1^DIAZI ([Ligand] (uM) 0.1) it was 3.172 and 4.215 and 4.029; in the experiment with PYR1^DIAZI ([Ligand] (uM) 1) it was 4.479 and 4.68 and 4.503; with PYR1^DIAZI ([Ligand] (uM) 10), 10.058 and 10.652 and 11.029; with PYR1^DIAZI ([Ligand] (uM) 100), 21.801 and 16.912 and 16.034; with PYR1^DIAZI ([Ligand] (uM) 1000), 25.73 and 20.742 and 19.283. Further, in the experiment with PYR1^DIAZI ([Ligand] (uM) 10000), the “split luciferase luminescence” value was 25.492 and 21.692 and 23.422.
